From ChEMBL document CHEMBL4477270, “Design, synthesis, and protein methyltransferase activity of a unique set of constrained amine containing compounds” (Bioorg Med Chem Lett, 2016)

Columns and labels:
[1] = molecular target: Protein arginine N-methyltransferase 6 (Homo sapiens) (UniProt Q96LA8); assay: Inhibition of PRMT6 (unknown origin) using biotin-labeled histone substrate assessed as residual activity at 50 uM in presence of [3H-Me]SAM by scintillation proximity assay relative to control
Sequence of Protein arginine N-methyltransferase 6 (Homo sapiens) (Q96LA8 whole entry, looked up): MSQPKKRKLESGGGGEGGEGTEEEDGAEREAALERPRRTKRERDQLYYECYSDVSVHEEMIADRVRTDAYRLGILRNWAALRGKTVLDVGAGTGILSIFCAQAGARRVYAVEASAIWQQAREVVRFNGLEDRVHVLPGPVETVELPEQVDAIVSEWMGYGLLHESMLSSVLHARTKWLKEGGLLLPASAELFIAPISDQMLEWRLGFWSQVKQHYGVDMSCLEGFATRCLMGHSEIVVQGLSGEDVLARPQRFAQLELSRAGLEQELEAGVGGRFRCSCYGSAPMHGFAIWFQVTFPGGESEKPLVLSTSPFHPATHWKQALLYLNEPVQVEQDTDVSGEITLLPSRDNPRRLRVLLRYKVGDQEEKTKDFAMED

[2] = molecular target: Protein arginine N-methyltransferase 5 (Homo sapiens) (UniProt O14744); assay: Inhibition of PRMT5 (unknown origin) using biotin-labeled histone substrate assessed as residual activity at 50 uM in presence of [3H-Me]SAM by scintillation proximity assay relative to control
Sequence of Protein arginine N-methyltransferase 5 (Homo sapiens) (O14744 whole entry): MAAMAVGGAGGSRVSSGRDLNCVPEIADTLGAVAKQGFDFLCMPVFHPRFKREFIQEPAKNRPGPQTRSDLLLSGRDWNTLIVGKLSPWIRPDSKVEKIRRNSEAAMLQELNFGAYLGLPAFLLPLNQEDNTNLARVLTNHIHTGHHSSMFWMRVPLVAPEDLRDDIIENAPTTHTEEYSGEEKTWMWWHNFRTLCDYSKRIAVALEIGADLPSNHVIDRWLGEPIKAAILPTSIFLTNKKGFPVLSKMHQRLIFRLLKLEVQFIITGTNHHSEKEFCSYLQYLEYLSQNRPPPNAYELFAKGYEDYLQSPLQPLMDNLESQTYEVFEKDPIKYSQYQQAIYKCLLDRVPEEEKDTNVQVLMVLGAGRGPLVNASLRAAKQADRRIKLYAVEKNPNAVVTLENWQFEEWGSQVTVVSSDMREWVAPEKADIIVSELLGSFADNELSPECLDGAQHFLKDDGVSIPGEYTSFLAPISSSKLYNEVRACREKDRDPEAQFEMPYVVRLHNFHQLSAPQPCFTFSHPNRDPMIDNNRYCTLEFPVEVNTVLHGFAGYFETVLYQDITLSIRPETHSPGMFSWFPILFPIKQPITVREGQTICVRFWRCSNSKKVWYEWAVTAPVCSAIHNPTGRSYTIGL

[3] = molecular target: T1, Protein arginine N-methyltransferase 7 (Homo sapiens) (UniProt Q9NVM4); assay: Inhibition of PRMT7 (unknown origin) using biotin-labeled histone substrate assessed as residual activity at 50 uM in presence of [3H-Me]SAM by scintillation proximity assay relative to control
T1 sequence (whole entry): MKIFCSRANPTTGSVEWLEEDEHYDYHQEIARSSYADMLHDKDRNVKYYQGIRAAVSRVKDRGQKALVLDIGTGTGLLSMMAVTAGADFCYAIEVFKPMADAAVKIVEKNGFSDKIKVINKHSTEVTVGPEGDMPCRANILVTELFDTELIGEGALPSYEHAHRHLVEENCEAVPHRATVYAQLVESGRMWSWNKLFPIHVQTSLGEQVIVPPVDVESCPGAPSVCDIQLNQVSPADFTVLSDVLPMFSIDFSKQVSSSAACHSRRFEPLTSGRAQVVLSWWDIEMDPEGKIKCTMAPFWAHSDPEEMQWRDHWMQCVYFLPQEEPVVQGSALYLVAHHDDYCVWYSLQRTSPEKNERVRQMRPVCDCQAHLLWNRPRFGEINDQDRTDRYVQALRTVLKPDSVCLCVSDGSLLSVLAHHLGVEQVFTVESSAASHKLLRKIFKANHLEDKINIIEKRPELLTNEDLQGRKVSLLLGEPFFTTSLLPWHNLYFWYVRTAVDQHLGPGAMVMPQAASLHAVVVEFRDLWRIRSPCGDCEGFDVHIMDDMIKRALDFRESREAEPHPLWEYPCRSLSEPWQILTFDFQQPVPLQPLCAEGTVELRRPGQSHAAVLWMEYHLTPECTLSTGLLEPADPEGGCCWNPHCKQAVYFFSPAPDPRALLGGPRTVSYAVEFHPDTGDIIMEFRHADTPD

[4] = molecular target: Protein arginine N-methyltransferase 1 (Homo sapiens) (UniProt Q99873); assay: Inhibition of PRMT1 (unknown origin) using biotin-labeled histone substrate assessed as residual activity at 50 uM in presence of [3H-Me]SAM by scintillation proximity assay relative to control
Sequence of Protein arginine N-methyltransferase 1 (Homo sapiens) (Q99873 whole entry, looked up): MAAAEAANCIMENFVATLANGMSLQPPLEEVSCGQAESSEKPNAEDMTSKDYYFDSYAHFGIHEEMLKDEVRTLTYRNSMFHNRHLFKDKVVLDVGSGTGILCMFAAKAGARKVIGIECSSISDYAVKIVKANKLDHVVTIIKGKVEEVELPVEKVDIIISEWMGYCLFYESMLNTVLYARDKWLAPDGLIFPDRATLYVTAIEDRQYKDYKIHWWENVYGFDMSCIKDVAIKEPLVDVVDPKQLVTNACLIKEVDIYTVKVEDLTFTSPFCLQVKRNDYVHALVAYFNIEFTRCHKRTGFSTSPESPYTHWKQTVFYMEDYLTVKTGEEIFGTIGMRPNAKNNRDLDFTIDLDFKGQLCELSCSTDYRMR

[5] = molecular target: T2, Histone-lysine N-methyltransferase SMYD3 (Homo sapiens) (UniProt Q9H7B4); assay: Inhibition of SMYD3 (unknown origin) using biotin-labeled histone substrate assessed as residual activity at 50 uM in presence of [3H-Me]SAM by scintillation proximity assay relative to control
T2 sequence (whole entry): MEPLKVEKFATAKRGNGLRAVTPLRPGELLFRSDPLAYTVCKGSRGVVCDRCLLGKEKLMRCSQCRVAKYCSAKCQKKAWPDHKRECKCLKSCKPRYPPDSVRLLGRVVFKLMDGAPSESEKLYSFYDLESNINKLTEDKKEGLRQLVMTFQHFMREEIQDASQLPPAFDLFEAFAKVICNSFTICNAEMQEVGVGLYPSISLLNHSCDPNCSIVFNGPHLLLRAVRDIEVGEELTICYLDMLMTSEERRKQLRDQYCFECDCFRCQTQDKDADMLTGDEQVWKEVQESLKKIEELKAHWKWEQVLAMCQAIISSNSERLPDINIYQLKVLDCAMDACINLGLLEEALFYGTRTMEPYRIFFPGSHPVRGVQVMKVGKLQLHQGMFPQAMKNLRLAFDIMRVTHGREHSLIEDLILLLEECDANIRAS

[6] = molecular target: Histone-lysine N-methyltransferase, H3 lysine-36 specific (Homo sapiens) (UniProt Q96L73); assay: Inhibition of NSD1 (unknown origin) using biotin-labeled histone substrate assessed as residual activity at 50 uM in presence of [3H-Me]SAM by scintillation proximity assay relative to control
[7] = molecular target: Histone-lysine N-methyltransferase KMT5B (Homo sapiens) (UniProt Q4FZB7); assay: Inhibition of SUV420H1 (unknown origin) using biotin-labeled histone substrate assessed as residual activity at 50 uM in presence of [3H-Me]SAM by scintillation proximity assay relative to control
Sequence of Histone-lysine N-methyltransferase KMT5B (Homo sapiens) (Q4FZB7 whole entry, looked up): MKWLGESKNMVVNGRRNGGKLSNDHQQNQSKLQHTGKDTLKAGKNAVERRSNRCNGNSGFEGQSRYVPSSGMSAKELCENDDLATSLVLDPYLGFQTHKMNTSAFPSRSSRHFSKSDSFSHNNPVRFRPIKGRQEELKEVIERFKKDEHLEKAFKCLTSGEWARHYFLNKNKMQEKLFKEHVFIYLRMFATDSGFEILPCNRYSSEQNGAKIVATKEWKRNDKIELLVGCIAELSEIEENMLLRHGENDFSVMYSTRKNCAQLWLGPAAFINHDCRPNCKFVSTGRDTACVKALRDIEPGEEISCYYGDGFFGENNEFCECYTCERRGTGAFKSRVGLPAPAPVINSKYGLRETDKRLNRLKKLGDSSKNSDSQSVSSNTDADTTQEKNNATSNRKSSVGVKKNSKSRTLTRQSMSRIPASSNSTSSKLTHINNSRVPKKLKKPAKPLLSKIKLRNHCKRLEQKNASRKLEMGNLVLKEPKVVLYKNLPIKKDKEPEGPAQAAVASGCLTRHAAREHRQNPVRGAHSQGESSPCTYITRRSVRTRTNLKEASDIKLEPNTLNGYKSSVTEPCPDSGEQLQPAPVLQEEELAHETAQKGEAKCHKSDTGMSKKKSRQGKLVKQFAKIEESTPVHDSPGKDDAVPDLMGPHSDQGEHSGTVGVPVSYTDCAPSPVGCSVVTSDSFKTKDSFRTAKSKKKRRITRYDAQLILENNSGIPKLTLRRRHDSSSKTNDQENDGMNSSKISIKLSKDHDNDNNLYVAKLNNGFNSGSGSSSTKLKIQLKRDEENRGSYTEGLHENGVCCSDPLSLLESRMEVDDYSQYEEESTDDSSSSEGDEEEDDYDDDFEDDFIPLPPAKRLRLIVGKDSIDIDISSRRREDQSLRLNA

[8] = molecular target: Histone-lysine N-methyltransferase, H3 lysine-79 specific (Homo sapiens) (UniProt Q8TEK3); assay: Inhibition of DOT1L (unknown origin) using biotin-labeled histone substrate assessed as residual activity at 50 uM in presence of [3H-Me]SAM by scintillation proximity assay relative to control
Sequence of Histone-lysine N-methyltransferase, H3 lysine-79 specific (Homo sapiens) (Q8TEK3 whole entry, looked up): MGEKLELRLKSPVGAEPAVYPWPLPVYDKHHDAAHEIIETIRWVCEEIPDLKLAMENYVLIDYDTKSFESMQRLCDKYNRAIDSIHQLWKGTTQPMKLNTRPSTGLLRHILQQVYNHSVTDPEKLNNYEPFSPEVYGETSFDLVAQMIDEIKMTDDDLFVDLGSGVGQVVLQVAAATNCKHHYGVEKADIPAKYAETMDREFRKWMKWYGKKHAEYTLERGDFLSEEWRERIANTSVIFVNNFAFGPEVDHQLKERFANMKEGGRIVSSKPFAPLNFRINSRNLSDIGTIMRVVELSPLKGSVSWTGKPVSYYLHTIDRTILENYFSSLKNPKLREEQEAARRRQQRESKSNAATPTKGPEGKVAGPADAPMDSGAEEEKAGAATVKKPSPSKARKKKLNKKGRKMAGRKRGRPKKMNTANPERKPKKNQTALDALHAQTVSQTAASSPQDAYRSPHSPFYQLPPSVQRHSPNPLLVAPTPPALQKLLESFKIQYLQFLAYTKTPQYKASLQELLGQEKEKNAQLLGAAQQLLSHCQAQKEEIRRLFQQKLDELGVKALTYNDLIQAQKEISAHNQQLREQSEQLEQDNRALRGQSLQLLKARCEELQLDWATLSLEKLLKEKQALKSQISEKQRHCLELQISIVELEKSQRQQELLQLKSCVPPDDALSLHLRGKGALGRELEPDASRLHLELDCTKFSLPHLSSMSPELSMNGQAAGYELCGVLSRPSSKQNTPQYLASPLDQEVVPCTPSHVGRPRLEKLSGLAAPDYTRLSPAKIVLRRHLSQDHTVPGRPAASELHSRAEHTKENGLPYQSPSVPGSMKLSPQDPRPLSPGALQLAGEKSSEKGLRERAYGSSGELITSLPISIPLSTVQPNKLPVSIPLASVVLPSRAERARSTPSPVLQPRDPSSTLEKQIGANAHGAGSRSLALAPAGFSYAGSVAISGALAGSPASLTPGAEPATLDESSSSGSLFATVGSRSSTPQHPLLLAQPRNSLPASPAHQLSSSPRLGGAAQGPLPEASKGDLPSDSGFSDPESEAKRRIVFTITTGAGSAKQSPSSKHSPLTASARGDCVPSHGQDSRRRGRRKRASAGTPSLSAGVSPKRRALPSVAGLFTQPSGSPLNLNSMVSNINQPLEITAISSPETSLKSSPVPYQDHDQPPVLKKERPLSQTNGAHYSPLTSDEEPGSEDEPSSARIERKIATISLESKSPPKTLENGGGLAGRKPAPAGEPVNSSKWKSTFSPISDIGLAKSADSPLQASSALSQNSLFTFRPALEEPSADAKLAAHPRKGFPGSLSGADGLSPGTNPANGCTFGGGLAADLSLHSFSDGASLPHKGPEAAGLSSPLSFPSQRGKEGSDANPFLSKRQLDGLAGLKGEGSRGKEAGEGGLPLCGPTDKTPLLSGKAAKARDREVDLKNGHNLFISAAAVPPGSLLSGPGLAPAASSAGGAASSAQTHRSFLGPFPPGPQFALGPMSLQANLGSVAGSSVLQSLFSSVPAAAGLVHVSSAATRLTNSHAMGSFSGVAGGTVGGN

[9] = molecular target: Protein N-lysine methyltransferase METTL21A (Homo sapiens) (UniProt Q8WXB1); assay: Inhibition of METTL21A (unknown origin) using biotin-labeled histone substrate assessed as residual activity at 50 uM in presence of [3H-Me]SAM by scintillation proximity assay relative to control
Sequence of Protein N-lysine methyltransferase METTL21A (Homo sapiens) (Q8WXB1 whole entry, the tested form may be a part): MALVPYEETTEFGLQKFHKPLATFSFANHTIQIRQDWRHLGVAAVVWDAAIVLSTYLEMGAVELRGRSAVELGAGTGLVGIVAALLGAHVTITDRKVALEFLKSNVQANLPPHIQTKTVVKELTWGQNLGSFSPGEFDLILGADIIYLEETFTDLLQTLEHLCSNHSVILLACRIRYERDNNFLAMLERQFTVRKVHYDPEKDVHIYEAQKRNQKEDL

[10] = molecular target: Histone-lysine N-methyltransferase SETD2 (Homo sapiens) (UniProt Q9BYW2); assay: Inhibition of N-terminal His6-tagged human SETD2 (1347 to 1711 residues) expressed in Escherichia coli Rosseta-2(DE3) cells assessed as residual activity at 50 uM using biotinylated-histone H3 (20 to 50 residues) as substrate in presence of [3H-Me]SAM by scintillation proximity assay relative to control
[11] = molecular target: Histone-lysine N-methyltransferase KMT5C (Homo sapiens) (UniProt Q86Y97); assay: Inhibition of SUV420H2 (unknown origin) using biotin-labeled histone substrate assessed as residual activity at 50 uM in presence of [3H-Me]SAM by scintillation proximity assay relative to control
Sequence of Histone-lysine N-methyltransferase KMT5C (Homo sapiens) (Q86Y97 whole entry, looked up): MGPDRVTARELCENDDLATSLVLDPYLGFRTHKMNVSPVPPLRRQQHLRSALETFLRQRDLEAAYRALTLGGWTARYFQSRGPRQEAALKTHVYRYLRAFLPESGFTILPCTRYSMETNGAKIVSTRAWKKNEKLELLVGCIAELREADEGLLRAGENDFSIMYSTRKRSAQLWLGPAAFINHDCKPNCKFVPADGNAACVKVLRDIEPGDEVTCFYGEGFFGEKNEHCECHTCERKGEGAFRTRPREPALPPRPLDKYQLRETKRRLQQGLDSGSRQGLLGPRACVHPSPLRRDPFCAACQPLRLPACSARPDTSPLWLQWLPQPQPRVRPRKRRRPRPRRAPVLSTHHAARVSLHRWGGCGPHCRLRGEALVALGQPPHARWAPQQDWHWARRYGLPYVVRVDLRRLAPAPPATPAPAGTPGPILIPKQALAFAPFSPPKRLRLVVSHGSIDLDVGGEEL

[12] = molecular target: Histone-lysine N-methyltransferase SUV39H2 (Homo sapiens) (UniProt Q9H5I1); assay: Inhibition of SUV39H2 (unknown origin) using biotin-labeled histone substrate assessed as residual activity at 50 uM in presence of [3H-Me]SAM by scintillation proximity assay relative to control
Sequence of Histone-lysine N-methyltransferase SUV39H2 (Homo sapiens) (Q9H5I1 whole entry): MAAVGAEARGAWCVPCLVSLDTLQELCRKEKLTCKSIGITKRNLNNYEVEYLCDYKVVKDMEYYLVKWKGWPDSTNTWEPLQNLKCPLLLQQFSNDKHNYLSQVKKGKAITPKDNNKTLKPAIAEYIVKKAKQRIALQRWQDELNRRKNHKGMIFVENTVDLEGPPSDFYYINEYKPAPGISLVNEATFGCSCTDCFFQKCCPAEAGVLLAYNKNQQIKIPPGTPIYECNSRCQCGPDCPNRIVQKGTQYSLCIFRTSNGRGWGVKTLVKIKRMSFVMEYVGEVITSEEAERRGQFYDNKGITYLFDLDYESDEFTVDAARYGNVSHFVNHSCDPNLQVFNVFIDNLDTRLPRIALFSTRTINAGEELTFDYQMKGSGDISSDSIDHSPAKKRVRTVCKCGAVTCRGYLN

SMILES | Activity [1] [%] | Activity [2] [%] | Activity [3] [%] | Activity [4] [%] | Activity [5] [%] | Activity [6] [%] | Activity [7] [%] | Activity [8] [%] | Activity [9] [%] | Activity [10] [%] | Activity [11] [%] | Activity [12] [%]
CN1C[C@H]2CCCN(C(=O)c3cccc(Br)c3)[C@H]2C1 | 106 | 108 | 96 | 97 | 93 | 99 | 106 | 94 | 93 | 106 | 100 | 77
O=C(c1cccc(Br)c1)N1C[C@@H]2CCN[C@@H]2C1 | 102 | 114 | 109 | 89 | 101 | 93 | 106 | 94 | 96 | 110 | 94 | 88
O=C(c1cccc(Br)c1)N1C[C@@H]2CC3CCCN3[C@@H]2C1 (some centres undefined) | 107 | 96 | 105 | 109 | 89 | 106 | 109 | 100 | 100 | 110 | 101 | 102
CN1CCC[C@@H]2CN(C(=O)c3cccc(Br)c3)C[C@@H]21 | 106 | 107 | 107 | 96 | 112 | 94 | 106 | 97 | 108 | 104 | 100 | 101
CN1CCCCC12CCCN(C(=O)c1cccc(Br)c1)C2 (centres undefined) | 89 | 107 | 104 | 110 | 111 | 82 | 106 | 100 | 100 | 111 | 99 | 91
CN1CCC2(CCCN2C(=O)c2cccc(Br)c2)CC1 | 104 | 98 | 107 | 99 | 99 | 91 | 98 | 97 | 99 | 98 | 99 | 97
CN1CCCC2(CCCN2C(=O)c2cccc(Br)c2)C1 (centres undefined) | 98 | 96 | 103 | 105 | 98 | 101 | 101 | 107 | 100 | 109 | 109 | 92
